Measured values reported in patent US20250345458A1, “COMPLEXING AGENT SALT FORMULATIONS OF PHARMACEUTICAL COMPOUNDS AT LOW STOICHIOMETRIC RATIOS” (Bexson Biomedical, Inc., priority 2022, published 2025).
Marks after values point to notes of the source that are not given here.

Experiments:
[1] = Osmolality of API formulations (micro osmometer, triplicate); assay type: physicochemical
Description: Osmolality readings were obtained on an Advanced Instruments Advanced™ Micro Osmometer Model 3300 (Advanced Instruments, Inc. Norwood, MA, USA). Saline solutions (0.9% and 3%) were run as positive controls. Each sample was calculated as the mean from back-to-back triplicate measurements. When replicate batches were measured, data was reported as mean±SEM.
The procedure was performed on a 2 mL scale. […] Benzethonium chloride (20 μL of a 1% solution, 0.01% final concentration) was added via micropipette. The pH was adjusted to ˜7.00 with 2M sodium hydroxide, or either 1M or 2M HCl in some cases, and then the mixture was transferred to a 2 mL volumetric flask to be diluted with HPLC grade water. […]
Method 1: In a 5 mL borosilicate glass test tube which contained a Teflon-coated magnetic stir bar, Captisol®-Na+ ([…], H+ equivalents, moisture corrected) was dissolved in HPLC grade water (1.6-1.7 mL), API salt (HCl in most cases) (70 mg/mL FB equivalents) was added and the mixture was stirred until a homogenous transparent solution formed. Benzethonium chloride (20 μL of a 1% solution, giving a 0.01% final concentration) was added via micropipette. The pH was adjusted to ˜7.00 with 1M or 2M sodium hydroxide, or either 1M or 2M HCl in some cases, and then the mixture was transferred to a 2 mL volumetric flask to be diluted with HPLC grade water. […]
Benzethonium chloride (20 μL of a 1% solution, giving a 0.01% final concentration) was added via micropipette. The pH was adjusted to ˜7.00 with 1M or 2M sodium hydroxide, or either 1M or 2M HCl in some cases, and then the mixture transferred to a 2 mL volumetric flask to be diluted with HPLC grade water. […]
The solution was transferred to a 2 mL volumetric flask and diluted to the target volume with HPLC grade water. […]

[2] = Reported solubility in water of APIs (freebase and salt); assay type: physicochemical
Description: Table 5 lists the solubility and pKa values of the various APIs described above.
A challenge was that reliable solubility data for certain APIs was difficult to locate (especially for the freebase forms). As such in a number of instances only predicted values could be located and in the case of rimantidine HCl this value was inconsistent with our empirical results. Likewise, the drugbank predicted value for tigecycline was 0.01455 mg/mL, whereas a literature value was 0.45 mg/mL. The solubility of a range of poor to moderately to highly soluble APIs as freebases as well as common commercial API salt forms will be determined.

[3] = Osmolality of API formulations (micro osmometer, triplicate); assay type: physicochemical; remark: listed apart in the source
[4] = Dissolution of API freebase in aqueous CapAcid / Captisol solutions at defined API:CapAcid ratios, visual inspection and NaOH titration; settings: water, 70 mg/mL FB; listed as Rimantidine
[5] = pH of API formulations (pH meter); assay type: physicochemical

osmolality and pH in words ([1]; 70 mg/mL API-Cap formulation): isosmotic and PH neutral
Osmolality ([1]; API FB CapAcid formulation, 70 mg/mL API FB, 1.1 equivalents CapAcid (H^+ equivalents), after titration): 301.7 mOsmol/kg
Osmolality ([1]; CapAcid-API Freebase Formulation (70 mg/mL API FB, 1.1 molar equivalent CapAcid), after pH titration with NaOH or HCl): 301.7 mOsm/kg
Osmolality ([1]; Captisol®-Na^+ formulation of API salt, ***20 mg/mL FB equivalents, 1.1 molar equivalent Captisol®-Na^+): 297.3*** mOsm/kg
solubility [2]: ~20 mg/mL
Osmolality ([3]; 20 mg/mL API HCl (FB equivalent), 1.1 equivalents Captisol®-Na^+): 297.3 mOsmol/kg
Osmolality ([3]; API Salt in water, ***20 mg/mL FB equivalents): 195.3 mOsm/kg
Successful in a 70 mg/mL API-CapAcid Formulation (Y/N) [4]: prepared at 70 mg/mL without issue
pH of the solution prior to titration ([5]; 20 mg/mL API HCl (FB equivalent), 1.1 equivalents Captisol®-Na^+, before NaOH): 4.65
pH of the solution prior to titration ([5]; 70 mg/mL API FB, 1.1 equivalents CapAcid, before NaOH/HCl): 1.93
pH ([5]; CapAcid-API Freebase Formulation (70 mg/mL API FB, 1.1 molar equivalent CapAcid), final pH after titration and dilution): 6.98
Compound: CC(N)C12CC3CC(CC(C3)C1)C2 (centres unmarked) [Rimantadine]
